Measured values: patent US8883778B2, “Cyclic inhibitors of 11 beta-hydroxysteroid dehydrogenase 1” (Vitae Pharmaceuticals, Inc., priority 2009, dated 2014)

What was measured:
11β-HSD1 [1] = molecular target: T1, 11β-HSD1 (Homo sapiens, UniProt P28845); test: In vitro inhibition of 11β-HSD1 with HTRF technology, cortisol generated by human liver microsomes; assay type: biochemical; set-up: detecting cortisol generated from cortisterone by human liver microsomes; from tissue; host or cells: human liver microsomes; details: 1 hour at 37° C., cortisone 80 nM
T1 sequence (P28845 whole entry): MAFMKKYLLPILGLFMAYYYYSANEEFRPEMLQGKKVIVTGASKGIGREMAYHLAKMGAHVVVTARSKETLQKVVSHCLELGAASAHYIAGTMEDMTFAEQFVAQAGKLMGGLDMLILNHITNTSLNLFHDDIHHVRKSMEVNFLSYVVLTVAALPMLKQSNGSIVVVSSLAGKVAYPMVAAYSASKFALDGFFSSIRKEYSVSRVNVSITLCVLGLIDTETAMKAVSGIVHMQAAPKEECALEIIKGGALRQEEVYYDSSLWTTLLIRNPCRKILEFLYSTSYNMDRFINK
Experimental: Briefly, compounds were incubated for 1 hour at 37° C. in Tris buffer (20 mM tris, 5 mM EDTA, pH 6.0) containing NADPH (200 μM) and cortisone (80 nM). Cortisol generated in the reaction is then detected with a competitive immunoassay, involving two HTRF conjugates: cortisol linked to XL665 and anti-cortisol antibody labeled with Europium cryptate. The incubation period for detection reaction was typically 2 hours. The amount of cortisol was determined by reading the time-resolved fluorescence of the wells (Ex 320/75 nm; Em 615/8.5 nm and 665/7.5 nm). The ratio of the two emission signals was then calculated (Em665*10000/Em615). […] Each assay also contained a calibration curve with cortisol to transform the fluorescent data into cortisol concentrations. Percent inhibition of each compound was determined relative to the carbenoxolone signal.

11β-HSD1 [2] = molecular target: T1, 11β-HSD1; test: Inhibition of a microsomal preparation of 11β-HSD1, scintillation proximity assay; assay type: biochemical; set-up: expressed in transfected cells; host or cells: CHO cells (microsomes); details: microsomes from CHO cells overexpressing human 11β-HSD1; for inhibition at 0.1 µM: at 100 nM
Experimental: All reactions were carried out at rt in 96 well clear flexible PET Microbeta plates (PerkinElmer). […] After a 10 minute pre-incubation, 50 μL of enzyme solution containing microsomes isolated from CHO cells overexpressing human 11β-HSD1 (10-20 μg/ml of total protein) was added, and the plates were incubated for 90 minutes at rt. The reaction was stopped by adding 50 μl of the SPA beads suspension containing 10 μM 18β-glycyrrhetinic acid, 5 mg/ml protein A coated YSi SPA beads (GE Healthcare) and 3.3 μg/ml of anti-cortisol antibody (East Coast Biologics) in Superblock buffer (Bio-Rad). The plates were shaken for 120 minutes at rt, and the SPA signal corresponding to [^3H]cortisol was measured on a Microbeta plate reader.

SMILES | IC50 (11β-HSD1 [1]) [nM] | inhibition at 0.1 µM (11β-HSD1 [2]) [%] | IC50 (11β-HSD1 [2]) [nM]
C[C@@H](c1ccc(C#CC(C)(C)NC(=O)C2CC2)cc1)N1CC[C@](CC(C)(C)O)(c2ccccc2)OC1=O [Example 8, N-(4-(4-((S)-1-((S)-6-(2-hydroxy-2-methylpropyl)-2-oxo-6-phenyl-1,3-oxazinan-3-yl)ethyl)phenyl)-2-methylbut-3-yn-2-yl)cyclopropanecarboxamide] |  | 92.2 | 7.5
C=C(C)C[C@]1(c2ccccc2)CCN([C@@H](C)c2ccc(C#CC(C)(C)NS(C)(=O)=O)cc2)C(=O)O1 [Example 22, N-(2-methyl-4-(4-((S)-1-((R)-6-(2-methylallyl)-2-oxo-6-phenyl-1,3-oxazinan-3-yl)ethyl)phenyl)but-3-yn-2-yl)methanesulfonamide] |  | 93.6 | 1.8
C[C@@H](c1ccc(C#CC2(O)CCOCC2)cc1)N1CC[C@](CC(C)(C)O)(c2ccccc2)OC1=O [Example 10, (S)-6-(2-hydroxy-2-methylpropyl)-3-((S)-1-(4-((4-hydroxytetrahydro-2H-pyran-4-yl)ethynyl)phenyl)ethyl)-6-phenyl-1,3-oxazinan-2-one] |  | 84.7 | 6.9
CC(=O)NC(C)(C)C#Cc1ccc([C@H](C)N2CC[C@](CC(C)(C)O)(c3ccccc3)OC2=O)cc1 [Example 17, N-(4-(4-((S)-1-((S)-6-(2-hydroxy-2-methylpropyl)-2-oxo-6-phenyl-1,3-oxazinan-3-yl)ethyl)phenyl)-2-methylbut-3-yn-2-yl)acetamide] |  | 84.9 | 11.9
C[C@@H](c1ccc(C#CC(C)(C)C(=O)NC2CC2)cc1)N1CC[C@](CC(C)(C)O)(c2ccccc2)OC1=O [Example 7, N-cyclopropyl-4-(4-((S)-1-((S)-6-(2-hydroxy-2-methylpropyl)-2-oxo-6-phenyl-1,3-oxazinan-3-yl)ethyl)phenyl)-2,2-dimethylbut-3-ynamide] |  | 93.5 | 5.2
C[C@@H](c1ccc(C#CC2(NC(N)=O)CCCCC2)cc1)N1CC[C@](CC(C)(C)O)(c2ccccc2)OC1=O [Example 16, 1-(1-((4-((S)-1-((S)-6-(2-hydroxy-2-methylpropyl)-2-oxo-6-phenyl-1,3-oxazinan-3-yl)ethyl)phenyl)ethynyl)cyclohexyl)urea] |  | 95.6 | 3.1

Second part, the compound after the results:

IC50 (11β-HSD1 [1]) [nM] | inhibition at 0.1 µM (11β-HSD1 [2]) [%] | IC50 (11β-HSD1 [2]) [nM] | SMILES
30 |  |  | C[C@@H](c1ccc(C#Cc2ccc(=O)n(C)c2)cc1)N1CC[C@](CC(C)(C)O)(c2ccccc2)OC1=O [Example 31, (S)-6-(2-Hydroxy-2-methyl-propyl)-3-{(S)-1-[4-(1-methyl-6-oxo-1,6-dihydro-pyridin-3-ylethynyl)-phenyl]ethyl}-6-phenyl-[1,3]oxazinan-2-one]
 | 86 | 13.4 | C[C@@H](c1ccc(C#CC(C)(C)C(=O)O)cc1)N1CC[C@](CC(C)(C)O)(c2ccccc2)OC1=O [Example 4, 4-(4-((S)-1-((S)-6-(2-hydroxy-2-methylpropyl)-2-oxo-6-phenyl-1,3-oxazinan-3-yl)ethyl)phenyl)-2,2-dimethylbut-3-ynoic acid]
29 |  |  | C[C@@H](c1ccc(C#Cc2ccn(C)c(=O)c2)cc1)N1CC[C@](CC(C)(C)O)(c2ccccc2)OC1=O [Example 30, (S)-6-(2-Hydroxy-2-methyl-propyl)-3-{(S)-1-[4-(1-methyl-2-oxo-1,2-dihydro-pyridin-4-ylethynyl)-phenyl]ethyl}-6-phenyl-[1,3]oxazinan-2-one]
 | 97.9 | 1.4 | C[C@@H](c1ccc(C#Cc2cc[nH]c(=O)c2)cc1)N1CC[C@](CC(C)(C)O)(c2ccccc2)OC1=O [Example 29, (S)-6-(2-hydroxy-2-methylpropyl)-3-((S)-1-(4-((2-oxo-1,2-dihydropyridin-4-yl)ethynyl)phenyl)ethyl)-6-phenyl-1,3-oxazinan-2-one]
